Results: ChEMBL document CHEMBL5230157, “The natural anthraquinone dye purpurin exerts antibacterial activity by perturbing the FtsZ assembly” (Bioorg Med Chem, 2021)
Calls of active or inactive are those of the source. The rule behind the calls is not given here.

Assays:
HeLa [1] = experiment: Antiproliferative activity against human HeLa cells assessed as inhibition of cell proliferation at 100 uM incubated for 24 hrs by sulforhodamine B assay; type: functional; parameters: scale not given: the % may be the effect or the level left
Escherichia coli [2] = experiment: Antibacterial activity against Escherichia coli XL1 assessed as bacterial growth inhibition at 10 uM by spectrophotometric method; type: functional; settings: read-out: GI
[3] = target: T1, Cell division protein FtsZ (Escherichia coli K-12, UniProt P0A9A6); experiment: Binding affinity to Escherichia coli BL21 FtsZ assessed as dissociation constant of hydrophobic probe ANS-FtsZ complex fluorescence quenching incubated for 30 mins by double reciprocal plot analysis
T1 sequence (P0A9A6 whole entry): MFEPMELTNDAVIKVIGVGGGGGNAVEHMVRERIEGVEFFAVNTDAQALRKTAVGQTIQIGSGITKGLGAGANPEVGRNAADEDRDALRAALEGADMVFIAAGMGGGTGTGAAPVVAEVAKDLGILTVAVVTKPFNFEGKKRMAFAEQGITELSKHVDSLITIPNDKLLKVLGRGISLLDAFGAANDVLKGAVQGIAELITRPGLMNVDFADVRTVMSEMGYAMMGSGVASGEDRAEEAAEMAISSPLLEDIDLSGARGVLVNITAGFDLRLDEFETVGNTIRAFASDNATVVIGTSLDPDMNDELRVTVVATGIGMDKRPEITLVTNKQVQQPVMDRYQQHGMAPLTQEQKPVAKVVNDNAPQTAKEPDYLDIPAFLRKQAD

Tubulin (Homo sapiens) = Tubulin (Homo sapiens) (UniProt P68371+Q9H4B7+P0DPH7+P68366+Q13509+Q71U36+P04350+Q3ZCM7+P07437+P68363+Q9BQE3+Q6PEY2+Q13885+Q9BVA1+Q9BUF5); experiment: Inhibition of tubulin polymerization […] assessed as effect on MAP rich- tubulin polymer mass at 20 to 80 uM preincubated for 10 mins followed by GTP addition and measured after 1 hrs by Bradford assay; settings: dose 20-80 µM, time 70.0 min
[4] = target: T2, Cell division protein FtsZ (Escherichia coli K-12) (UniProt P0A9A6); experiment: Inhibition of KCl-induced Escherichia coli BL21 FtsZ polymerization at 20 uM incubate for 10 min followed by KCl stimulation by spectrofluorimeter based light-scattering assay
T2 sequence (whole entry): T1 sequence (P0A9A6 whole entry)

[5] = target: T2, Cell division protein FtsZ (Escherichia coli K-12); experiment: Inhibition of KCl-induced Escherichia coli BL21 FtsZ polymerization at 40 uM incubate for 10 min followed by KCl stimulation by spectrofluorimeter based light-scattering assay
Bacillus subtilis [6] = experiment: Antibacterial activity against Bacillus subtilis 168 assessed as increase in average cell length at 7 uM incubated for 4 hrs in 23% of bacterial cells by fluorescent microscopy; type: functional
HeLa [7] = experiment: Antiproliferative activity against human HeLa cells assessed as inhibition of cell proliferation at 300 uM incubated for 24 hrs by sulforhodamine B assay; type: functional; parameters: scale not given: the % may be the effect or the level left
Bacillus subtilis [8] = experiment: Antibacterial activity against Bacillus subtilis 168 assessed as bacterial growth inhibition by spectrophotometric method; type: functional, organism-based
[9] = target: T2, Cell division protein FtsZ (Escherichia coli K-12); experiment: Binding affinity to Escherichia coli BL21 FtsZ assessed as hydrophobic probe ANS-FtsZ complex fluorescence quenching at 5 uM for 30 mins by fluorescence analysis
HeLa [10] = experiment: Antiproliferative activity against human HeLa cells assessed as inhibition of cell proliferation at 50 uM incubated for 24 hrs by sulforhodamine B assay; type: functional; parameters: scale not given: the % may be the effect or the level left
Bacillus subtilis [11] = experiment: Antibacterial activity against Bacillus subtilis 168 assessed as increase in average cell length at 7 uM incubated for 4 hrs in 9% of bacterial cells by fluorescent microscopy; type: functional
[12] = target: T3, Cell division protein FtsZ (Bacillus subtilis) (UniProt A5Z1V5); experiment: Inhibition of Bacillus subtilis PL642 GFP-tagged FtsZ assessed as effect on nucleoid segregation at 7 uM for 4 hrs by immunostaining based fluorescent microscopy
T3 sequence (whole entry): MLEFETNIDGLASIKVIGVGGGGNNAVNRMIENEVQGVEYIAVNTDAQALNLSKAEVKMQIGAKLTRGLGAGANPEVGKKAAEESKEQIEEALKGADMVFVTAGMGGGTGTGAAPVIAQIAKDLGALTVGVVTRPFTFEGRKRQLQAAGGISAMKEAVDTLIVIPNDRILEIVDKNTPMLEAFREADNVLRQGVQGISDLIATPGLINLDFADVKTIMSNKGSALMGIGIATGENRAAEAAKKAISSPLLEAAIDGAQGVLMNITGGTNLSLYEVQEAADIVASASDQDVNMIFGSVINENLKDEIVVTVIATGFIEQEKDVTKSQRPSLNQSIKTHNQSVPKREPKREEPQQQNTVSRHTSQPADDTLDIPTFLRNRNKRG

[13] = target: T2, Cell division protein FtsZ (Escherichia coli K-12); experiment: Inhibition of KCl-induced Escherichia coli BL21 FtsZ polymerization assessed as decrease in FtsZ polymer average length at 80 uM incubate for 1 hrs by […] staining based fluorescence microscopy
[14] = target: T4, Cell division protein FtsZ (Bacillus subtilis, UniProt A5Z1V5); experiment: Binding affinity to Bacillus subtilis FtsZ assessed as dissociation constant of intrinsic tryptophan quenching incubated for 30 mins by double reciprocal plot analysis
T4 sequence (A5Z1V5 whole entry): T3 sequence (whole entry)

Bacillus subtilis [15] = experiment: Antibacterial activity against Bacillus subtilis 168 assessed as bacterial growth inhibition at 10 uM by spectrophotometric method; type: functional; settings: read-out: GI
Bacillus subtilis [16] = experiment: Antibacterial activity against Bacillus subtilis 168 assessed as increase in average cell length at 7 uM incubated for 4 hrs in 69% of bacterial cells by fluorescent microscopy; type: functional
HeLa [17] = experiment: Antiproliferative activity against human HeLa cells assessed as inhibition of cell proliferation at 10 uM incubated for 24 hrs by sulforhodamine B assay; type: functional; parameters: scale not given: the % may be the effect or the level left
Escherichia coli [18] = experiment: Antibacterial activity against Escherichia coli XL1 assessed as bacterial growth inhibition at 80 uM by spectrophotometric method; type: functional; settings: read-out: GI
HeLa [19] = experiment: Antiproliferative activity against human HeLa cells assessed as inhibition of cell proliferation at 20 uM incubated for 24 hrs by sulforhodamine B assay; type: functional; parameters: scale not given: the % may be the effect or the level left
[20] = target: T2, Cell division protein FtsZ (Escherichia coli K-12); experiment: Inhibition of KCl-induced Escherichia coli BL21 FtsZ polymerization at 80 uM incubate for 10 min followed by KCl stimulation by spectrofluorimeter based light-scattering assay
[21] = target: T3, Cell division protein FtsZ (Bacillus subtilis); experiment: Inhibition of Bacillus subtilis PL642 GFP-tagged FtsZ assessed as decrease FtsZ ring at mid bacterial cells at 7 uM for 4 hrs by immunostaining based fluorescent microscopy
Bacillus subtilis [22] = experiment: Antibacterial activity against Bacillus subtilis 168 assessed as increase in average cell length at 7 uM incubated for 4 hrs in 82% of bacterial cells by fluorescent microscopy; type: functional
[23] = target: T2, Cell division protein FtsZ (Escherichia coli K-12); experiment: Binding affinity to Escherichia coli BL21 FtsZ assessed as hydrophobic probe ANS-FtsZ complex fluorescence quenching at 40 uM for 30 mins by fluorescence analysis
Escherichia coli [24] = experiment: Antibacterial activity against Escherichia coli XL1 assessed as bacterial growth inhibition at 150 uM by spectrophotometric method; type: functional; settings: read-out: GI

Kd [3]: 11 µM
inhibition (Tubulin (Homo sapiens)): inactive
inhibition [4]: 20%
inhibition [5]: 31%
Activity [9]: 25%
Activity [12]: inactive
inhibition [13]: Active
Kd [14]: 5.2 µM
inhibition [20]: 47%
Activity [21]: Active
Activity [23]: 66%
SMILES: O=C1c2ccccc2C(=O)c2c(O)c(O)cc(O)c21 [PURPURIN]
Activity (HeLa [1]): 45%
inhibition of growth at 10 µM (Escherichia coli [2]): 12.5%
Activity (Bacillus subtilis [6]): 50.1 um
Activity (HeLa [7]): 89%
IC50 (Bacillus subtilis [8]): 5.5 µM
Activity (HeLa [10]): 28%
Activity (Bacillus subtilis [11]): 7 um
inhibition of growth at 10 µM (Bacillus subtilis [15]): 65%
Activity (Bacillus subtilis [16]): 15.1 um
Activity (HeLa [17]): 6%
inhibition of growth at 80 µM (Escherichia coli [18]): 38%
Activity (HeLa [19]): 14%
Activity (Bacillus subtilis [22]): 20.1 um
inhibition of growth at 150 µM (Escherichia coli [24]): 47.8%
